# Experimental data taken from paper PMC11271967, “An inhibitory mechanism of AasS, an exogenous fatty acid scavenger: Implications for re-sensitization of FAS II antimicrobials” (PLOS Pathogens, 2024).
# Several values for one entry are separate records, joined by “and”; a condition that tells them apart may be missing. Equal entries are not always repeated. Where two headings read alike, the source gives them in different places.
# How the values were obtained:
# [1] = tested on: AasS; assay: In vitro enzymatic activity of AasS (acyl-ACP formation, conformationally-sensitive urea PAGE, ImageJ semi-quantitation); type: biochemical, Vibrio harveyi
# [2] = target: AasS (Vibrio harveyi, UniProt Q00IB3); assay: Microscale thermophoresis (MST), wild-type AasS; type: binding; details: MST
# Description: (§1) To validate poor binding of AasS(D411A) to C10 fatty acyl adenylate observed in our ITC assays, the relatively-more sensitive approach of microscale thermophoresis (MST) was additionally applied here as Jerabek-Willemsen et al. described with minor alteration. Using the Protein Labeling Kit (Protein Labeling Kit RED-NHS 2nd Generation, Nano Temper Technology), both the wild-type AasS and its D411A mutant were fluorescently labelled in the MST buffer (150 mM NaCl, 25 mM Tris-HCl, 3 mM MgCl2, 0.05% Tween-20, pH 8.0). The ligand C10-AMP used in MST assays was prepared by an equal mixture of C10 and ATP. In general, an NT.115 Monolith instrument (Nano Temper Technology, Germany) was integrated, of which the routine parameters included a RED/LED (20%) excitation power along with 60% laser power for excitation. Then, the protein samples were siphoned into MST Premium Coated capillaries for the determination of binding affinity at room temperature. The final concentrations of different AasS samples were 40 nM for WT, and 180 nM for D411A, respectively. The mixture of C10/ATP was diluted in a gradient (from 0.15 nM to 5.0 μM). Three independent MST experiments were conducted here. The dissociation constants (Kd) were calculated using the software MO. Affinity Analysis v2.3. Of note, this was largely dependent on the KD model with a 1:1 stoichiometry per binding partner.
# [3] = tested on: AasS(D411A); assay: Microscale thermophoresis (MST), AasS(D411A) mutant; type: binding, Vibrio harveyi; details: MST
# Description: as §1
# Chain of AasS (Vibrio harveyi, UniProt Q00IB3) (Q00IB3 entry or part of it): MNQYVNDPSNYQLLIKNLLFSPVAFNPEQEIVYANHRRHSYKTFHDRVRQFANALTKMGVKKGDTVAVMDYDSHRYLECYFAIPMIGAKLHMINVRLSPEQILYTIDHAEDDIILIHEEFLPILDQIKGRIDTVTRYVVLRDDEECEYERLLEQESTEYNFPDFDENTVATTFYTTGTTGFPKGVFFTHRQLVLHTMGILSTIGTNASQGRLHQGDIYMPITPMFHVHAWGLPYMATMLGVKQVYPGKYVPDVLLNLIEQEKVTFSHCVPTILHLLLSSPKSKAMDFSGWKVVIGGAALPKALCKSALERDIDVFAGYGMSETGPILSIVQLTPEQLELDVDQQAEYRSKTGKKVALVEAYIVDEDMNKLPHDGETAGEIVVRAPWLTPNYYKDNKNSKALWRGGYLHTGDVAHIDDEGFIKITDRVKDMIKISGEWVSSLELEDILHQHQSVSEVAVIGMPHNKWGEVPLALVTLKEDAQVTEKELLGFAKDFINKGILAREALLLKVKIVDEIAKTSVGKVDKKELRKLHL
structure (smiles),measurement,setting,value
CCCCCCCCCC(=O)NS(=O)(=O)OC[C@H]1O[C@@H](n2cnc3c(N)ncnc32)[C@H](O)[C@@H]1O [C10-AMS],"inhibition of C10 fatty acylation, Average (S1E Fig, second block; order of addition not printed)",[1],64.1924% and 78.0145% and 84.8528% and 86.8699%
same,"inhibition of C10 fatty acylation, Average (S1E Fig, third block; order of addition not printed)",[1],82.6351% and 89.1845% and 93.1119% and 91.664%
same,Ki,"[1]; C10 substrate fixed at 80 μM, AasS 3 nM, semi-quantitative gel assay, read-out: inhibition constant (Ki) of C10-AMS vs AasS",~620 nM and 620 nM and ~600 nM
same,Ki,"[1]; E-C7 600 μM, AasS 31.25 nM, read-out: Ki for E-C7 acyl substrate",~2950 nM and 2950 nM
same,Ki,"[1]; condition 1#, C10 80 μM, AasS 3 nM, read-out: Ki, order-of-addition experiment",670 nM
same,Ki,"[1]; condition 2#, C10 80 μM, AasS 3 nM, read-out: Ki, order-of-addition experiment",1370 nM
same,"Average (DeltaFNorm), AasS(WT)",[2]; Dose 1.52588e-10,0.4239
same,"Average (DeltaFNorm), AasS(WT)",[2]; Dose 3.05176e-10,1.688
same,"Average (DeltaFNorm), AasS(WT)",[2]; Dose 6.10352e-10,0.6276
same,"Average (DeltaFNorm), AasS(WT)",[2]; Dose 1.2207e-9,-0.2133
same,"Average (DeltaFNorm), AasS(WT)",[2]; Dose 2.44141e-9,-0.7539
same,"Average (DeltaFNorm), AasS(WT)",[2]; Dose 4.88281e-9,-0.9203
same,"Average (DeltaFNorm), AasS(WT)",[2]; Dose 9.76563e-9,-2.469
same,"Average (DeltaFNorm), AasS(WT)",[2]; Dose 1.95313e-8,-0.4913
same,"Average (DeltaFNorm), AasS(WT)",[2]; Dose 3.90625e-8,-0.5142
same,"Average (DeltaFNorm), AasS(WT)",[2]; Dose 7.8125e-8,-1.198
same,"Average (DeltaFNorm), AasS(WT)",[2]; Dose 1.5625e-7,-2.398
same,"Average (DeltaFNorm), AasS(WT)",[2]; Dose 3.125e-7,-4.638
same,"Average (DeltaFNorm), AasS(WT)",[2]; Dose 6.25e-7,-6.534
same,"Average (DeltaFNorm), AasS(WT)",[2]; Dose 1.25e-6,-7.36
same,"Average (DeltaFNorm), AasS(WT)",[2]; Dose 2.5e-6,-8.128
same,"Average (DeltaFNorm), AasS(WT)",[2]; Dose 5e-6,-7.529
same,"Average (DeltaFNorm), AasS(D411A)",[3]; Dose 1.52588e-10,4.014
same,"Average (DeltaFNorm), AasS(D411A)",[3]; Dose 3.05176e-10,2.739
same,"Average (DeltaFNorm), AasS(D411A)",[3]; Dose 6.10352e-10,3.15
same,"Average (DeltaFNorm), AasS(D411A)",[3]; Dose 1.2207e-9,3.03
same,"Average (DeltaFNorm), AasS(D411A)",[3]; Dose 2.44141e-9,-1.436
same,"Average (DeltaFNorm), AasS(D411A)",[3]; Dose 4.88281e-9,1.165
same,"Average (DeltaFNorm), AasS(D411A)",[3]; Dose 9.76563e-9,0.1826
same,"Average (DeltaFNorm), AasS(D411A)",[3]; Dose 1.95313e-8,-0.6893
same,"Average (DeltaFNorm), AasS(D411A)",[3]; Dose 3.90625e-8,2.194
same,"Average (DeltaFNorm), AasS(D411A)",[3]; Dose 7.8125e-8,-2.669
same,"Average (DeltaFNorm), AasS(D411A)",[3]; Dose 1.5625e-7,-0.9022
same,"Average (DeltaFNorm), AasS(D411A)",[3]; Dose 3.125e-7,-3.911
same,"Average (DeltaFNorm), AasS(D411A)",[3]; Dose 1.25e-6,-3.293
same,"Average (DeltaFNorm), AasS(D411A)",[3]; Dose 2.5e-6,-1.334
same,"Average (DeltaFNorm), AasS(D411A)",[3]; Dose 5e-6,-2.2407
